Experimental data taken from patent US6663858B1, “In Vivo gene transfer using implanted retroviral producer cells” (The Regents of the University of California, priority 1991, dated 2003).
Converted amounts (≈) assume the structure as drawn. “And” between values parts separate entries of the source, which are not always exact repeats. Equal values may be shown once. “Also recorded” adds a separate entry of the source.

Experiments:
9 L brain tumors [1] = assay: Short-term (17 days) 9 L brain tumor volume after HSV-TK producer cell implantation and GCV; format: in vivo, Fischer 344 rats
Protocol: (§1) Tumor Cell and Producer Cell Implantation. The 9 L cells were maintained in Dulbecco's modified Eagle's medium with 10% fetal bovine serum, penicillin G (100 units/ml), streptomycin sulfate (100 μg/ml). Brain tumors were established in adult female Fischer 344 rats which were housed and handled in accordance with National Institutes of Health guidelines.
(§2) In all studies tumors were implanted by an intracerebral injection of 2×10^5 tumor cells into the region of the right caudate nucleus (3 mm lateral, 1 mm anterior to bregma, 4 mm ventral) (Paxinos, G. & Watson, C. (1987) The Rat Brain in Stereotaxic Coordinates (University Press ***).
Animals in short-term studies underwent a second surgery 3 days after tumor implantation, at which time retroviral producer cells (either 2×10^5 in 4 μl or 2×10^6 in 8 μl, representing an equal, number (1×) or 10 times (10×) the number of injected tumor cells, respectively) were implanted into the established brain tumors and allowed to grow with brain tumor cells for 7 days. Ten days after tumor implantation, subsets of animals were given 0.2 ml intraperitoneal injections of GCV (Syntex, Palo Alto, Calif.) 50 mg/kg once a day for 7 or 14 days. Animals in the short-term experiments were sacrificed after 7 days of GCV administration (17 days after tumor implantation) and then perfused with 4% paraformaldehyde.
Brain Tumor Analysis. Short-term treatment response was determined by comparing individual brain tumor volumes measured by postmortem stereologic study in groups containing a minimum of five animals.
(§3) Long-term results were studied in 90-day survival studies with tumor volumes determined in long-term survivors. Stained brain sections were examined and tumor volumes were quantified by stereologic methods (Gundersen, H. J. G., Bagger, P. & Bendtsen, T. F. (1988) APMIS ***96, 857-881). Tumor volumes were compared by the Mann-Whitney U test. In long-term survival experiments (90 days), animals were observed daily and survival data were analyzed by Kaplan-Meier analysis with the Mantel-Cox statistic.

9 L brain tumors [2] = assay: Long-term (90-day) survival of rats with 9 L brain tumors after HSV-TK producer cells and GCV; format: in vivo, Fischer 344 rats; details: for treated animals surviving 90 days: both long-term trials combined, HSV-TK producer cells plus GCV
Protocol: as §1, §2
Two trials of long-term (90-day) survival were performed. In the first, producer cells (2×10^5), equal to the initial number of tumor cells implanted) were grafted into 3-day-old brain tumors. GCV treatments were started in 12 animals 7 days later (tumor day 10) and continued for 7 days; 8 animals received no GCV. In the second trial, 2×10^5 or 2×10^6 producer cells in 50 μl (representing 1× or 10× the number of injected tumor cells, respectively) were grafted into 3-day-old established brain tumors of 10 animals per group. GCV treatments started 7 days later and were administered for 14 days.
as §3

9 L tumor cells = assay: Repeat tumor challenge in long-term survivors; format: in vivo, Fischer 344 rats
Source text: Repeat Tumor Challenge. Four animals with long-term tumor regression were studied with repeat tumor challenges 90 days after the initial tumor implantation. Animals underwent repeated intracerebral injections of 2×10^5 9 L tumor cells into the left caudate nucleus and injections of 1×10^6 9 L tumor cells into the right flank. Five normal, naive rats received identical injections of 9 L tumor cells. Animals were sacrificed and perfused 17 days later to determine resulting tumor volumes.

9 L brain tumors [3] = details: no producer cell injections; Barba et al. 1993; cited from earlier work
[4] = system: C6 glial tumor cells infected with STK, NTK or μTK vector; assay: Survival of C6 glioma clones carrying HSV-TK vectors in increasing concentrations of acyclovir; format: cell-based; details: C6 clones infected with each vector (STK, NTK, μTK); acyclovir 0.1 to 100 μg/ml for 3 days
Protocol: Murine retroviral vectors carrying the HSV-TK gene, the STK, NTK, and μTK vectors, were obtained from Dr. F. L. Moolten. The plasmid forms of the vectors were transfected into −2 cells (Mann et al., Cell 33:153-159 (1983)); selection with 1 mg/ml of the neomycin analog G418 permitted the isolation of clone producer lines that yielded viruses capable of transducing G418 resistance and HSV-TK activity. Virus titers were determined by the limiting dilution method and found to be greater than 50 pfu/cell. As expected with −2 cells, no replication-competent virus was detected.
The replicative defective viruses produced by −2 cells were used to infect C6 glial tumor cells. The cells to be infected were grown in DME plus 10% fetal bovine serum plus 4 μg/ml of polybrene and were grown to about 60-70% confluence in a T75 flask or about 2×10^6 cells/ml. The cells were infected with about 100 pfu/cell of virus. The infected cells were cultured for 24 hours with Dulbecco's Medium containing 10% fetal bovine serum and antibiotics; afterwards they were exposed to 1 mg of G418/ml to select for cells that expressed vector-derived genes.
Clones resulting from infection of C6 glial cells with each of the vectors were exposed to acyclovir at concentrations ranging from 0.1 to 100 μg/ml for 3 days. Each vector rendered the glial cells sensitive to acyclovir.

cells carrying HSV-TK = assay: 3-day cytotoxicity assay, cells carrying HSV-TK; format: cell-based; details: 72 h, read-out: inhibitory dose for 50% of the cells
Protocol: (§4) Similar results were obtained in a 3-day cytotoxicity assay; the inhibitory dose of acyclovir for 50% of the cells lacking the HSV-TK gene was greater than […] for cells carrying HSV-TK.

[5] = system: cells lacking the HSV-TK gene; assay: 3-day cytotoxicity assay, cells lacking the HSV-TK gene; format: cell-based; details: 72 h, read-out: inhibitory dose for 50% of the cells
Protocol: as §4

[6] = HSV-TK producer cells plus GCV, 17-day-old tumors

| SMILES | tumor volume / tumor regression versus rats not treated with GCV (9 L brain tumors [1]; HSV-TK producer cells (1:1 or 10:1) implanted day 3, GCV 50 mg/kg per day i.p. for 7 days, day 17) | treated animals with focal regression of part of the tumor adjacent to unaffected tumor (9 L brain tumors [1]; [6]) | treated animals with unaffected tumors (9 L brain tumors [1]; [6]) | animals alive after 90 days in each experimental group, second trial (9 L brain tumors [2]; 1× or 10× producer cells, 10 animals per group, GCV for 14 days) | treated animals surviving 90 days, first trial (9 L brain tumors [2]; 2×10^5 producer cells, GCV for 7 days from tumor day 10, none of 8 untreated survived longer than 25 days) | tumor volume in the third surviving treated animal, first trial (9 L brain tumors [2]; 90 days) | residual tumor volume in two of the surviving treated animals, first trial (9 L brain tumors [2]; 90 days, small intracerebral cysts) | survival, GCV for 7 versus 14 days (9 L brain tumors [2]; both groups receiving 1× producer cells) | survival, 1× versus 10× producer cells (9 L brain tumors [2]; both groups receiving GCV for 14 days) | treated animals surviving 90 days (9 L brain tumors [2]) | treated animals surviving 90 days (9 L brain tumors [2]; controls 0/8) | survival of treated versus control animals (9 L brain tumors [2]; combined treated groups, Kaplan-Meier, P<0.002) | flank tumor nodules after repeat challenge (9 L tumor cells; 1×10^6 9 L cells into right flank, 17 days, flank tumors in four of five naive rats) | tumor volume at the site of the secondary tumor cell implants (left hemisphere) (9 L tumor cells; 2×10^5 9 L cells, 17 days after repeat challenge, naive animals 129-169) | tumor volume at the site of the initial tumor cell implantation in long-term survivors (9 L tumor cells; four long-term survivors of second trial, 17 days after repeat challenge) | growth of repeat tumor injections in rats surviving 90 days (9 L tumor cells; repeat 9 L injections after HSV-TK producer cells and GCV, tumors grew in naive rats) | tumor regression in animals treated with GCV without producer cell injections (9 L brain tumors [3]) | sensitivity of glial cells to acyclovir (survival, FIG. 2) [4] | IC50 (cells carrying HSV-TK) | IC50 [5] |
| --- | --- | --- | --- | --- | --- | --- | --- | --- | --- | --- | --- | --- | --- | --- | --- | --- | --- | --- | --- | --- |
| Nc1nc2c(ncn2COC(CO)CO)c(=O)[nH]1 [GCV, 9-((2-hydroxy-1-(hydroxymethyl)ethoxy)methyl) guanine] | Significant tumor regression; also recorded: significantly smaller | about 50% | about 10% | two | 3 of 12 | 62 mm^3 | < 0.2 mm^3 | no difference | No difference in survival | 22% | 7 of 32 and 7/32 | highly significant difference; also recorded: significant improvement in survival | failed to detect any tumor nodules | < 0.2 mm^3 | 0.6-2.0 mm^3 | rejected repeat tumor injections; also recorded: absence of growth of injected tumor cells; also recorded: inhibition of growth of the injected tumor cells | not seen |  |  |  |
| Nc1nc2c(ncn2COCCO)c(=O)[nH]1 [acyclovir, 9-((2-hydroxyethoxy)methyl)guanine] |  |  |  |  |  |  |  |  |  |  |  |  |  |  |  |  |  | sensitive | 0.5 µg/mL (≈ 2.22 µM) | > 10 µg/mL |
